Experimental findings from patent publication US20260355239A1, “COMBINATION OF A T CELL THERAPY AND CONTINUOUS OR INTERMITTENT DGK INHIBITOR DOSING” (Juno Therapeutics, Inc., priority 2022, published 2026) are described below.

SMILES strings stand for the structures.

Test [1] concerns OT-1 CD8+ T cells with MC38 tumor cells. Briefly: Murine Cytotoxic T Lymphocyte Assay (IFN-γ). It counts as cell-based, mouse. The note with it: OT-1 CTL with SIINFEKL-pulsed MC38 cells, 24 h; read-out: msCTL INFg IC50. The text has this:
5. Murine Cytotoxic T Lymphocyte Assay
An antigen-specific cytolytic T-cell (CTL) assay was developed to evaluate functionally the ability of DGKα and DGKζ inhibitors to enhance effector T cell mediated tumor cell killing activity. CD8^+ T-cells isolated from the OT-1 transgenic mouse recognize antigen presenting cells, MC38, that present the ovalbumin derived peptide […]. Recognition of the cognate antigen initiates the cytolytic activity of the OT-1 antigen-specific CD8+ T cells.
Functional CTL cells were generated as follows: OT-1 splenocytes from 8-12 week old mice were isolated and expanded in the presence of the […] peptide at 1 μg/mL and mIL2 at 10 U/mL. After three days, fresh media with […] was added. On day 5 of the expansion, the CD8+ T cells were isolated and ready for use. Activated CTL cells may be stored frozen for 6 months. Separately, one million MC38 tumor cells were pulsed with 1 μg/mL of […]-OVA peptide for 3 hours at 37 °C. The cells were washed (3×) with fresh media to remove excess peptide. Finally, CTL cells that were pretreated with DGK inhibitors for 1 hour in a 96-well U bottom plate were combined with the antigen loaded MC38 tumor cells at a 1:10 ratio. The cells were then spun at 700 rpm for 5 min and placed in an incubator overnight at 37 °C After 24 hours, the supernatant was collected for analysis of IFN-γ cytokine levels by AlphaLisa purchased from Perkin Elmer.

The test system of test [2] is naïve human CD8 T cells. Briefly: Human CD8 T Cells IFN-γ Assay. It counts as cell-based. The following applies: anti-CD3 + anti-CD28, 20 h, normalized to 3 μM reference compound, read-out: HuCD8 INFG Normalized EC50. The method, then: 7. Human CD8 T Cells IFN-γ Assay
Frozen naïve human CD8 T cells were thawed in AIM-V media, incubated for 2 h in 37 °C, and counted. The 384-well tissue culture plate was coated overnight at 4 °C with 20 μL anti-human CD3 at […] in PBS, which was removed off the plate before 40,000 cells per 40 microliters CD8 T cells with 0.1 μg/mL soluble anti-human CD28 were added to each well. The compounds were transferred using an Echo liquid handler to the cell plate immediately after the cells were plated. After 20 h incubation at 37 °C incubator, 3 microliters per well supernatants transferred into a new 384-well white assay plate for cytokine measurement.
Interferon-γ (IFN-γ) was quantitated using the AlphLISA kit (Cat #AL217) as described by the manufacturer manual (Perkin Elmer). The counts from each well were converted to IFN-γ concentration (pg/mL).

In test [3] the test system is Human venous whole blood. Briefly: Human Whole Blood IFN-γ Assay. In kind it is cell-based. The following applies: anti-CD3 + anti-CD28, 24 h, normalized to 3 μM reference compound, read-out: INFg Whole Blood Normalized-Agonist EC50. The method, then: 9. Human Whole Blood IFN-γ Assay
Human venous whole blood (22.5 μL per well), obtained from healthy donors, was pre-treated with compounds for one hour at 37 °C in a humidified 95% air/5% CO2 incubator. The blood was stimulated with 2.5 μL anti-human CD3 and anti-CD28 mAb at a final concentration of 1 μg/mL each for 24 hours at 37 °C. IFN-γ in the supernatants was measured using AlphLISA kit (Cat #AL217).

With `COC(=O)C1CN(c2cc(=O)n(C)c3ccc(C#N)nc23)CCN1C(c1ccc(F)cc1)c1ccc(F)cc1` (centres unmarked) [Compound 2, Methyl 1-(bis(4-fluorophenyl)methyl)-4-(6-cyano-1-methyl-2-oxo-1,2-dihydro-1,5-naphthyridin-4-yl)piperazine-2-carboxylate], the values for the EC50 in test [1], in test [2] and in test [3] were 64 nM, 62 nM and 520 nM, respectively.
Taken in the same sequence, the figures for `C[C@@H]1CN(c2c(C#N)c(=O)n(C)c3ccc(C#N)nc23)CCN1C(c1ccc(F)cc1)c1ccc(F)cc1` [Compound 4, (R)-8-(4-(bis(4-fluorophenyl)methyl)-3-methylpiperazin-1-yl)-5-methyl-6-oxo-5,6-dihydro-1,5-naphthyridine-2,7-dicarbonitrile] were 43 nM, 17 nM and 400 nM.
Consider `C[C@@H]1CN(c2cc(=O)n(C)c3ccc(C#N)nc23)[C@@H](C)CN1C(c1ccccc1)c1ccc(F)cc1` (stereo partly drawn) [Compound 5, 8-[(2S,5R)-4-[(4-fluorophenyl) (phenyl)methyl]-2,5-dimethylpiperazin-1-yl]-5-methyl-6-oxo-5,6-dihydro-1,5-naphthyridine-2-carbonitrile], for which the EC50 in test [2] worked out at 30 nM; in test [3], 680 nM.
With `COc1ccc2c(n1)c(N1C[C@@H](C)N(C(c3ccc(F)cc3)c3ccc(Cl)cc3)C[C@@H]1C)cc(=O)n2C` (stereo partly drawn) [Compound 8, 4-[(2S,5R)-4-[(4-chlorophenyl)(4-fluorophenyl)methyl]-2,5-dimethylpiperazin-1-yl]-6-methoxy-1-methyl-1,2-dihydro-1,5-naphthyridin-2-one], the EC50 in test [2] was found to be 12000 nM.
Turning to `C[C@@H]1CN(c2cc(=O)n(C)c3ccc(C#N)nc23)[C@@H](C)CN1Cc1ccc(F)cc1C(F)F` [Compound 9, 8-[(2S,5R)-4-{[2-(difluoromethyl)-4-fluorophenyl]methyl}-2,5-dimethylpiperazin-1-yl]-5-methyl-6-oxo-5,6-dihydro-1,5-naphthyridine-2-carbonitrile], the results for the EC50 in test [2] and in test [3] were 170 nM and 1500 nM, respectively.
In the case of `Cc1ccc(C(c2ccc(F)cc2)N2C[C@H](C)N(c3cc(=O)n(C)c4ccc(C#N)nc34)C[C@H]2C)cc1` (stereo partly drawn) [Compound 10, 8-[(2S,5R)-4-[(4-fluorophenyl)(4-methylphenyl)methyl]-2,5-dimethylpiperazin-1-yl]-5-methyl-6-oxo-5,6-dihydro-1,5-naphthyridine-2-carbonitrile], the results for the EC50 in test [1], in test [2] and in test [3] were 32 nM, 23 nM and 440 nM, respectively.
In the case of `CC(c1c(F)cccc1F)N1C[C@H](C)N(c2cc(=O)n(C)c3ccc(C#N)nc23)C[C@H]1C` (stereo partly drawn) [Compound 11, 8-[(2S,5R)-4-[1-(2,6-difluorophenyl)ethyl]-2,5-dimethylpiperazin-1-yl]-5-methyl-6-oxo-5,6-dihydro-1,5-naphthyridine-2-carbonitrile], the EC50 stood at 22 nM in test [2] and 650 nM in test [3].
The matching figures for `CCC(c1ccc(F)cc1F)N1C[C@H](C)N(c2cc(=O)n(C)c3ccc(C#N)nc23)C[C@H]1C` (stereo partly drawn) [Compound 12, 8-((2S,5R)-4-(1-(2,4-difluorophenyl)propyl)-2,5-dimethylpiperazin-1-yl)-5-methyl-6-oxo-5,6-dihydro-1,5-naphthyridine-2-carbonitrile]: 48 nM and 440 nM.
`Cc1ccc(C(c2ccc(C)cc2)N2C[C@H](C)N(c3cc(=O)n(C)c4ccc(C#N)nc34)C[C@H]2C)cc1` [Compound 16, 8-[(2S,5R)-4-[bis(4-methylphenyl)methyl]-2,5-dimethylpiperazin-1-yl]-5-methyl-6-oxo-5,6-dihydro-1,5-naphthyridine-2-carbonitrile]: the EC50 amounted to 72 nM in test [1], 9.5 nM in test [2] and 520 nM in test [3].
With `CCC(c1ccc(C(F)(F)F)cc1)N1C[C@H](CC)N(c2nc(=O)n(C)c3ccc(C#N)nc23)C[C@H]1CC` (stereo partly drawn) [Compound 18, 4-((2S,5R)-2,5-Diethyl-4-(1-(4-(trifluoromethyl)phenyl)propyl)piperazin-1-yl)-1-methyl-2-oxo-1,2-dihydropyrido[3,2-d]pyrimidine-6-carbonitrile], in test [3], the EC50 was determined as 3750 nM.
The same measure, in the same setting: for `CC[C@@H]1CN(c2nc(=O)n(C)c3ccc(C#N)nc23)[C@@H](C)CN1C(C)c1ccc(C(F)(F)F)cc1` (stereo partly drawn) [Compound 19, 4-((2S,5R)-5-Ethyl-2-methyl-4-(1-(4-(trifluoromethyl)phenyl)ethyl)piperazin-1-yl)-1-methyl-2-oxo-1,2-dihydropyrido[3,2-d]pyrimidine-6-carbonitrile] the value was 520 nM; for `CC[C@@H]1CN(c2nc(=O)n(C)c3ccc(C#N)nc23)[C@@H](C)CN1C(C)c1ccc(C(F)(F)F)cc1` (stereo partly drawn) [Compound 20, 4-((2S,5R)-5-Ethyl-2-methyl-4-(1-(4-(trifluoromethyl)phenyl)ethyl)piperazin-1-yl)-1-methyl-2-oxo-1,2-dihydropyrido[3,2-d]pyrimidine-6-carbonitrile], 32 nM; for `CC[C@@H]1CN(c2nc(=O)n(C)c3ccc(C#N)nc23)[C@@H](C)CN1C(c1ccc(F)cc1)c1ccc(C(F)(F)F)cn1` (stereo partly drawn) [Compound 21, 4-((2S,5R)-5-Ethyl-4-((4-fluorophenyl)(5-(trifluoromethyl)pyridin-2-yl)methyl)-2-methylpiperazin-1-yl)-1-methyl-2-oxo-1,2-dihydropyrido[3,2-d]pyrimidine-6-carbonitrile], 43 nM.
On to `CC[C@@H]1CN(c2nc(=O)n(C)c3ccc(C#N)nc23)[C@@H](C)CN1C(c1ccc(F)cc1)c1ccc(C(F)(F)F)cn1` (stereo partly drawn) [Compound 22, 4-((2S,5R)-5-Ethyl-4-((4-fluorophenyl)(5-(trifluoromethyl)pyridin-2-yl)methyl)-2-methylpiperazin-1-yl)-1-methyl-2-oxo-1,2-dihydropyrido[3,2-d]pyrimidine-6-carbonitrile], for which the EC50 in test [3] amounted to 20 nM.
Still for that read-out and setting: to `CC[C@@H]1CN(c2nc(=O)n(C)c3ccc(C#N)nc23)[C@@H](C)CN1C(c1ccc(Cl)cc1)c1ccccn1` (some centres unmarked) [Compound 23] belongs 10500 nM; to `CC[C@@H]1CN(c2nc(=O)n(C)c3ccc(C#N)nc23)[C@@H](C)CN1C(c1ccc(Cl)cc1)c1ccccn1` (some centres unmarked) [Compound 24], 200 nM.
Regarding `CC[C@H]1CN(C(c2ccc(F)cc2)c2nc(C3CC3)no2)[C@H](CC)CN1c1nc(=O)n(C)c2ccc(C#N)nc12` (some centres unmarked) [Compound 25], the EC50 in test [3] amounted to 15 nM.
Still for that read-out and setting: to `CC[C@H]1CN(C(c2ccc(F)cc2)c2nc(C3CC3)no2)[C@H](CC)CN1c1nc(=O)n(C)c2ccc(C#N)nc12` (some centres unmarked) [Compound 26] belongs 90 nM.
Still for that read-out and setting: for `C[C@@H]1CN(c2nc(=O)n(C)c3ccc(C#N)nc23)[C@@H](C)CN1C(c1ccc(F)cc1)c1ccc(C(F)(F)F)cn1` (stereo partly drawn) [Compound 28, 4-((2S,5R)-4-((4-fluorophenyl)(5-(trifluoromethyl)pyridin-2-yl)methyl)-2,5-dimethylpiperazin-1-yl)-1-methyl-2-oxo-1,2-dihydropyrido[3,2-d]pyrimidine-6-carbonitrile] the value was 240 nM; for `CCC[C@@H]1CN(c2nc(=O)n(C)c3ccc(C#N)nc23)[C@@H](C)CN1C(C)c1ccc(C(F)(F)F)cc1` (stereo partly drawn) [Compound 33, 1-Methyl-4-((2S,5R)-2-methyl-5-propyl-4-(1-(4-(trifluoromethyl)phenyl)ethyl)piperazin-1-yl)-2-oxo-1,2-dihydropyrido[3,2-d]pyrimidine-6-carbonitrile], 20000 nM.
